Paper PMC12197453 (Viruses, 2025)

Assays:
[1] = test system: 293T cells; experiment: Cytotoxicity (Cell Counting Kit-8) in 293T cells; assay type: cell-based; details: 10 μM, 48 h
[2] = test system: rJEV-EGFP; experiment: Inhibition of rJEV-EGFP replication in 293T cells (green fluorescence); assay type: cell-based, Japanese encephalitis virus; details: 10 μM, 48 h post-treatment, vs DMSO
[3] = test system: A549 cells; experiment: Cytotoxicity assay (Cell Counting Kit-8) in A549 cells; assay type: cell-based; details: 48 h; for cytotoxicity (cell viability): 10 μM; for CC50: Cell Counting Kit-8, read-out: CC50 (50% cytotoxic concentration)
[4] = test system: JEV-GFP replicon; experiment: Inhibition of JEV-GFP replicon replication in transfected BHK-21 cells; assay type: cell-based, Japanese encephalitis virus; details: 48 h, BHK-21 transfectants; for NS1 gene expression of the JEV-GFP replicon (library screening): screen of 20 bioactive compounds, qRT-PCR
[5] = test system: rJEV-EGFP; experiment: Inhibition of rJEV-EGFP replication in BHK-21 cells (green fluorescence); assay type: cell-based, Japanese encephalitis virus; details: 10 μM, 48 h post-treatment, vs DMSO
[6] = test system: rJEV-EGFP; experiment: Inhibition of rJEV-EGFP replication in A549 cells; assay type: cell-based, Japanese encephalitis virus; details: for intensities of green fluorescence produced by rJEV-EGFP replication: 10 μM, vs DMSO; for intensities of green fluorescence produced by rJEV-EGFP replication / levels of the JEV NS1 gene (qRT-PCR): 48 h post-treatment, A549 cells; for SI (Selectivity Index): SI = CC50/EC50, A549 cells; for levels of the JEV NS1 gene (qRT-PCR): different concentrations
[7] = test system: BHK-21 cells; experiment: Cytotoxicity (Cell Counting Kit-8) in BHK-21 cells; assay type: cell-based; details: 10 μM, 48 h
[8] = Cytotoxicity assay (Cell Counting Kit-8) in A549 cells; assay type: cell-based; details: human, Cell Counting Kit-8, read-out: CC50 (50% cytotoxic concentration)

COc1cc(NC(C(=O)N2CCc3ccc(OC(F)(F)F)cc32)c2ccc(Cl)cc2)cc(OCCCC(=O)O)c1 (stereo not shown) [JNJ-A07]
cytotoxicity (cell viability) [1]: no significant cytotoxicities | intensities of green fluorescence produced by rJEV-EGFP replication [2]: remarkably reduced | cytotoxicity (cell viability) [3]: no significant cytotoxicities | CC50 [3]: 29.9 µM | intensity of green fluorescence of JEV-GFP replicon ([4]; 10 μM, vs DMSO): significantly reduced | levels of the NS1 gene of JEV-GFP replicon (qRT-PCR) ([4]; 10 μM, vs DMSO): reduced | NS1 gene expression of the JEV-GFP replicon (library screening) [4]: higher inhibitory effect | intensities of green fluorescence produced by rJEV-EGFP replication [5]: remarkably reduced | intensities of green fluorescence produced by rJEV-EGFP replication [6]: remarkably reduced | SI (Selectivity Index) [6]: 2296.92 | levels of the JEV NS1 gene (qRT-PCR) [6]: significantly decreased | cytotoxicity (cell viability) [7]: no significant cytotoxicities

C#C[C@@]1(O)[C@H](O)[C@@H](CO)O[C@H]1n1ccc2c(N)ncnc21 [NITD008]
cytotoxicity (cell viability) [1]: no significant cytotoxicities | intensities of green fluorescence produced by rJEV-EGFP replication [2]: remarkably reduced | cytotoxicity (cell viability) [3]: no significant cytotoxicities | CC50 [3]: 37.8 µM | levels of the NS1 gene of JEV-GFP replicon (qRT-PCR) ([4]; 10 μM, vs DMSO): reduced | NS1 gene expression of the JEV-GFP replicon (library screening) [4]: higher inhibitory effect | intensities of green fluorescence produced by rJEV-EGFP replication [5]: remarkably reduced | intensities of green fluorescence produced by rJEV-EGFP replication [6]: remarkably reduced | levels of the JEV NS1 gene (qRT-PCR) [6]: significantly decreased | cytotoxicity (cell viability) [7]: no significant cytotoxicities

C=C[C@H]1C[N@@]2CC[C@H]1C[C@H]2[C@H](O)c1ccnc2ccc(OC)cc12 [Quinine]
cytotoxicity (cell viability) [1]: no significant cytotoxicities | intensities of green fluorescence produced by rJEV-EGFP replication [2]: remarkably reduced | CC50 at 48 h [8]: 45.8 µM | cytotoxicity (cell viability) [3]: no significant cytotoxicities | levels of the NS1 gene of JEV-GFP replicon (qRT-PCR) ([4]; 10 μM, vs DMSO): reduced | NS1 gene expression of the JEV-GFP replicon (library screening) [4]: higher inhibitory effect | intensities of green fluorescence produced by rJEV-EGFP replication [5]: remarkably reduced | intensities of green fluorescence produced by rJEV-EGFP replication [6]: remarkably reduced | SI (Selectivity Index) [6]: 282.47 | SI (Selectivity Index) ([6]; listed as quinine): 334.16 | levels of the JEV NS1 gene (qRT-PCR) [6]: significantly decreased | cytotoxicity (cell viability) [7]: no significant cytotoxicities
